Test results taken from the NIST ThermoML archive (doi:10.1016/j.tca.2015.03.026).
Where “and” joins values, the source holds several entries; their conditions need not be identical. Equal entries are not always repeated. Numbers after ± are expanded uncertainties.

What was measured:
[1] = for Normal melting temperature: DTA
[2] = Molar enthalpy of transition or fusion; conditions: Crystal; DSC

O=C(O)c1ccccc1 [benzoic acid]
[1], Crystal
Conditions | vapor or sublimation pressure [kPa]
297.67 K, Closed cell (Static) method | 0.000108 ± 4e-06
299.96 K, Closed cell (Static) method | 0.000142 ± 6e-06
300.03 K, Closed cell (Static) method | 0.000143 ± 6e-06
302.51 K, Closed cell (Static) method | 0.000193 ± 8e-06
304.75 K, Closed cell (Static) method | 0.00025 ± 1e-05
307.27 K, Closed cell (Static) method | 0.000335 ± 1.3e-05
309.63 K, Closed cell (Static) method | 0.000436 ± 1.7e-05
312.08 K, Closed cell (Static) method | 0.000573 ± 2.3e-05
314.4 K, Closed cell (Static) method | 0.000738 ± 3e-05
314.59 K, Closed cell (Static) method | 0.000754 ± 3e-05
316.3 K, Transpiration method | 0.00095 ± 7e-05
316.91 K, Closed cell (Static) method | 0.000969 ± 3.9e-05
319.48 K, Closed cell (Static) method | 0.00127 ± 5e-05
320.4 K, Transpiration method | 0.00147 ± 0.0001
321.91 K, Closed cell (Static) method | 0.00164 ± 7e-05
324 K, Transpiration method | 0.00214 ± 0.00015
324.39 K, Closed cell (Static) method | 0.00212 ± 8e-05
326.76 K, Closed cell (Static) method | 0.00268 ± 0.00011
327.4 K, Transpiration method | 0.00302 ± 0.0002
329.2 K, Closed cell (Static) method | 0.00343 ± 0.00014
331.62 K, Closed cell (Static) method | 0.00436 ± 0.00017
332.4 K, Transpiration method | 0.00495 ± 0.00033
334.07 K, Closed cell (Static) method | 0.00554 ± 0.00022
336.46 K, Closed cell (Static) method | 0.00693 ± 0.00028
337.4 K, Transpiration method | 0.00809 ± 0.00056
338.98 K, Closed cell (Static) method | 0.00873 ± 0.00035
342.3 K, Transpiration method | 0.01272 ± 0.00085
347.3 K, Transpiration method | 0.01965 ± 0.0013
352.4 K, Transpiration method | 0.03114 ± 0.002
357.4 K, Transpiration method | 0.04619 ± 0.003
362.5 K, Transpiration method | 0.06987 ± 0.0045
367.5 K, Transpiration method | 0.1076 ± 0.0068

COc1ccc(C(=O)O)cc1 [4-methoxybenzoic acid]
[1], Crystal, Transpiration method
Conditions | vapor or sublimation pressure [kPa]
363.3 K | 0.00117 ± 8e-05
368.2 K | 0.0019 ± 0.00013
374.9 K | 0.00353 ± 0.00023
383.2 K | 0.00753 ± 0.00052
384.5 K | 0.0085 ± 0.0006
388.3 K | 0.01217 ± 0.00082
391.1 K | 0.01556 ± 0.001
394.2 K | 0.01971 ± 0.0013
397.2 K | 0.0267 ± 0.0017
400.3 K | 0.03247 ± 0.0021
403.4 K | 0.04422 ± 0.0028
406.2 K | 0.05311 ± 0.0034

Cc1ccc(C(=O)O)cc1 [4-methylbenzoic acid]
[1], Crystal, Transpiration method
Conditions | vapor or sublimation pressure [kPa]
340.4 K | 0.00123 ± 0.0001
343.3 K | 0.00162 ± 0.00012
348.5 K | 0.00271 ± 0.00018
356.7 K | 0.00558 ± 0.00035
359.3 K | 0.00715 ± 0.0005
363.9 K | 0.01097 ± 0.00074
368.5 K | 0.01623 ± 0.0011
373.7 K | 0.02473 ± 0.0017
374.4 K | 0.02687 ± 0.0018
378.8 K | 0.03813 ± 0.0024
380.1 K | 0.04273 ± 0.0027
384.4 K | 0.05807 ± 0.0037
389.2 K | 0.08453 ± 0.0054
394 K | 0.1213 ± 0.0077
398.8 K | 0.1748 ± 0.011

Conditions | Normal melting temperature [°C]
[1], Crystal | 180.2 ± 1.1

Conditions | Molar enthalpy of transition or fusion [kcal/mol]
[2] | 5.33 ± 0.143

Cc1ccccc1C(=O)O [2-methylbenzoic acid]
[1], Crystal, Transpiration method
Conditions | vapor or sublimation pressure [kPa]
331.2 K | 0.0028 ± 0.00019
335.2 K | 0.00421 ± 0.00028
341.2 K | 0.00767 ± 0.00053
345.2 K | 0.0112 ± 0.00077
348.2 K | 0.01564 ± 0.001
351.2 K | 0.01962 ± 0.0013
355.4 K | 0.02895 ± 0.0019
358.6 K | 0.0389 ± 0.0026
358.7 K | 0.03932 ± 0.0026
361.2 K | 0.05138 ± 0.0033
364.2 K | 0.06664 ± 0.0043
367.4 K | 0.08391 ± 0.0054
373 K | 0.1339 ± 0.0084

COc1ccccc1C(=O)O [2-methoxybenzoic acid]
[1]
Conditions | vapor or sublimation pressure
318.25 K, Crystal, Closed cell (Static) method | 6.16e-05 ± 1.2e-06 kPa
320.73 K, Crystal, Closed cell (Static) method | 8.28e-05 ± 1.7e-06 kPa
323.21 K, Crystal, Closed cell (Static) method | 0.0001133 ± 2.3e-06 kPa
325.68 K, Crystal, Closed cell (Static) method | 0.0001504 ± 3e-06 kPa
328.17 K, Crystal, Closed cell (Static) method | 0.0002043 ± 4.1e-06 kPa
330.65 K, Crystal, Closed cell (Static) method | 0.0002676 ± 5.4e-06 kPa
333.12 K, Crystal, Closed cell (Static) method | 0.0003567 ± 7.1e-06 kPa
335.61 K, Crystal, Closed cell (Static) method | 0.0004802 ± 9.6e-06 kPa
335.62 K, Crystal, Closed cell (Static) method | 0.0004752 ± 9.5e-06 kPa
338.08 K, Crystal, Closed cell (Static) method | 0.0006182 ± 1.2e-05 kPa
340.58 K, Crystal, Closed cell (Static) method | 0.000822 ± 1.6e-05 kPa and 0.0008262 ± 1.7e-05 kPa
343.05 K, Crystal, Closed cell (Static) method | 0.001076 ± 2.2e-05 kPa
344.3 K, Crystal, Transpiration method | 0.00121 ± 9e-05 kPa
345.3 K, Crystal, Transpiration method | 0.00133 ± 0.0001 kPa
345.4 K, Crystal, Transpiration method | 0.00133 ± 0.0001 kPa
345.54 K, Crystal, Closed cell (Static) method | 0.001402 ± 2.8e-05 kPa
346.4 K, Crystal, Transpiration method | 0.0015 ± 0.0001 kPa
347.2 K, Crystal, Transpiration method | 0.00163 ± 0.00012 kPa
347.4 K, Crystal, Transpiration method | 0.00164 ± 0.00012 kPa
348.02 K, Crystal, Closed cell (Static) method | 0.001813 ± 3.6e-05 kPa
348.34 K, Crystal, Closed cell (Static) method | 0.001883 ± 3.8e-05 kPa
348.4 K, Crystal, Transpiration method | 0.00179 ± 0.00012 kPa
349.2 K, Crystal, Transpiration method | 0.00196 ± 0.00013 kPa
350.4 K, Crystal, Transpiration method | 0.0023 ± 0.00015 kPa
350.5 K, Crystal, Closed cell (Static) method | 0.002351 ± 4.7e-05 kPa
350.82 K, Crystal, Closed cell (Static) method | 0.002438 ± 4.9e-05 kPa
352.4 K, Crystal, Transpiration method | 0.00275 ± 0.00018 kPa
353.3 K, Crystal, Closed cell (Static) method | 0.003074 ± 6.1e-05 kPa
353.5 K, Crystal, Transpiration method | 0.00317 ± 0.00021 kPa
354.5 K, Crystal, Transpiration method | 0.00349 ± 0.00023 kPa
355.5 K, Crystal, Transpiration method | 0.00377 ± 0.00025 kPa
355.78 K, Crystal, Closed cell (Static) method | 0.003984 ± 8e-05 kPa
356.5 K, Crystal, Transpiration method | 0.00408 ± 0.00028 kPa
357.6 K, Crystal, Transpiration method | 0.00472 ± 0.00031 kPa
358.26 K, Crystal, Closed cell (Static) method | 0.005029 ± 0.0001 kPa
358.4 K, Crystal, Transpiration method | 0.00508 ± 0.00033 kPa
359.5 K, Crystal, Transpiration method | 0.00566 ± 0.00038 kPa
360.5 K, Crystal, Transpiration method | 0.00637 ± 0.00044 kPa
360.75 K, Crystal, Closed cell (Static) method | 0.006481 ± 0.00013 kPa
361.6 K, Crystal, Transpiration method | 0.00677 ± 0.00046 kPa
362.5 K, Crystal, Transpiration method | 0.00755 ± 0.00052 kPa
363.23 K, Crystal, Closed cell (Static) method | 0.008104 ± 0.00016 kPa
363.6 K, Crystal, Transpiration method | 0.00827 ± 0.00057 kPa
364.5 K, Crystal, Transpiration method | 0.00908 ± 0.00062 kPa
365.71 K, Crystal, Closed cell (Static) method | 0.01039 ± 0.00021 kPa
366.4 K, Crystal, Transpiration method | 0.0107 ± 0.00072 kPa
366.6 K, Crystal, Transpiration method | 0.01098 ± 0.00074 kPa
368.19 K, Crystal, Closed cell (Static) method | 0.01325 ± 0.00027 kPa
368.6 K, Crystal, Transpiration method | 0.01323 ± 0.00089 kPa
369.6 K, Crystal, Transpiration method | 0.01454 ± 0.00097 kPa
378.32 K, Liquid, Closed cell (Static) method | 0.0318 ± 0.0009 kPa
378.33 K, Liquid, Closed cell (Static) method | 0.0318 ± 0.0009 kPa
380.81 K, Liquid, Closed cell (Static) method | 0.0371 ± 0.0009 kPa
380.82 K, Liquid, Closed cell (Static) method | 0.0371 ± 0.0009 kPa
383.29 K, Liquid, Closed cell (Static) method | 0.0435 ± 0.0011 kPa
383.32 K, Liquid, Closed cell (Static) method | 0.0435 ± 0.0011 kPa
385.78 K, Liquid, Closed cell (Static) method | 0.0507 ± 0.0012 kPa and 0.0504 ± 0.0012 kPa
388.26 K, Liquid, Closed cell (Static) method | 0.0588 ± 0.0013 kPa
388.29 K, Liquid, Closed cell (Static) method | 0.0585 ± 0.0013 kPa
390.97 K, Liquid, Closed cell (Static) method | 0.0691 ± 0.0015 kPa
390.98 K, Liquid, Closed cell (Static) method | 0.0695 ± 0.0016 kPa
393.47 K, Liquid, Closed cell (Static) method | 0.0797 ± 0.0017 kPa and 0.0801 ± 0.0018 kPa
395.94 K, Liquid, Closed cell (Static) method | 0.0929 ± 0.002 kPa
395.95 K, Liquid, Closed cell (Static) method | 0.0933 ± 0.002 kPa
398.44 K, Liquid, Closed cell (Static) method | 0.1072 ± 0.0022 kPa and 0.1071 ± 0.0022 kPa
400.91 K, Liquid, Closed cell (Static) method | 0.1239 ± 0.0026 kPa
400.94 K, Liquid, Closed cell (Static) method | 0.1244 ± 0.0026 kPa
403.41 K, Liquid, Closed cell (Static) method | 0.1413 ± 0.0026 kPa
403.44 K, Liquid, Closed cell (Static) method | 0.1428 ± 0.0026 kPa
405.88 K, Liquid, Closed cell (Static) method | 0.1621 ± 0.0029 kPa
405.89 K, Liquid, Closed cell (Static) method | 0.1621 ± 0.0029 kPa
408.38 K, Liquid, Closed cell (Static) method | 0.1849 ± 0.0032 kPa
408.39 K, Liquid, Closed cell (Static) method | 0.1865 ± 0.0032 kPa
410.85 K, Liquid, Closed cell (Static) method | 0.2113 ± 0.0034 kPa
410.87 K, Liquid, Closed cell (Static) method | 0.2131 ± 0.0034 kPa
413.34 K, Liquid, Closed cell (Static) method | 0.2389 ± 0.0037 kPa
413.38 K, Liquid, Closed cell (Static) method | 0.242 ± 0.0039 kPa

Conditions | Normal melting temperature [°C]
[1], Crystal | 101.6 ± 1.1

Conditions | Molar enthalpy of transition or fusion [kcal/mol]
[2] | 5.71 ± 0.143

COc1cccc(C(=O)O)c1 [3-methoxybenzoic acid]
Conditions | Normal melting temperature [°C]
[1], Crystal | 109.0 ± 1.1

Conditions | Molar enthalpy of transition or fusion [kcal/mol]
[2] | 5.23 ± 0.143
